Measurements taken from ChEMBL document CHEMBL2074358, “Differential gene expression of organic anion transporters in male and female rats” (Biochem Biophys Res Commun, 2002).

Tests used:
[1] = target: T1, Solute carrier family 22 member 7 (Rattus norvegicus, UniProt Q5RLM2); experiment: (§1) TP_TRANSPORTER: Northern blot in vivo, kidney of Wistar rat; format: functional, organism-based
T1 sequence (Q5RLM2 whole entry): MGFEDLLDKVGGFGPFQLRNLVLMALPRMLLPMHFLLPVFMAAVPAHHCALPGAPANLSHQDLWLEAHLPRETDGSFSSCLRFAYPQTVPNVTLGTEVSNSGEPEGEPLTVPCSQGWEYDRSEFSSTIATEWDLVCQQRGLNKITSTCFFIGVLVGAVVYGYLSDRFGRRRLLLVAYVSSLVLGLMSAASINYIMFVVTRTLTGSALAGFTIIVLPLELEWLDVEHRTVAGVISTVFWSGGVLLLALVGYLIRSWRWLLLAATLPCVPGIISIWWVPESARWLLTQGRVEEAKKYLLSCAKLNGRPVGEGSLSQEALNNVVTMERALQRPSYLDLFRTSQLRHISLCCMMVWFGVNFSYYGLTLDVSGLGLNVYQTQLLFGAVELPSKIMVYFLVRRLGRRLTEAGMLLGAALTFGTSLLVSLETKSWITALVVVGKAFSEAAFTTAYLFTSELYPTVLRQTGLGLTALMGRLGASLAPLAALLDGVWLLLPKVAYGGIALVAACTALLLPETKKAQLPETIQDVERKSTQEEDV

[2] = target: T2, Organic anion transporter 3 (Rattus norvegicus, UniProt Q9R1U7); experiment: as §1; format: functional, organism-based
T2 sequence (Q9R1U7 whole entry): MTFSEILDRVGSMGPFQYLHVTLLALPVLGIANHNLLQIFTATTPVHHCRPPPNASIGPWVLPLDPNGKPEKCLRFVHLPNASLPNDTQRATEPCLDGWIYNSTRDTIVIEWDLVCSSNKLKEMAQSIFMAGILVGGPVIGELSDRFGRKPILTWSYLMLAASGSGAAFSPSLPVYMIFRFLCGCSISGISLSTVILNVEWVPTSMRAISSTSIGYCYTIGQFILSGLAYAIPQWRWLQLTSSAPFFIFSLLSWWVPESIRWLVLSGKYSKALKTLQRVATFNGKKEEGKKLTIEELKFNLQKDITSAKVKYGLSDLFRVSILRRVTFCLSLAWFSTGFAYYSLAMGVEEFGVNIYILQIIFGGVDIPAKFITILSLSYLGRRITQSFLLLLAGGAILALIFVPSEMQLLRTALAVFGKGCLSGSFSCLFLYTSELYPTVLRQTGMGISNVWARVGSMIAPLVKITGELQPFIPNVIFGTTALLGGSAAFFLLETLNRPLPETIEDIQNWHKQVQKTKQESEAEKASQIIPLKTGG

## C[C@]12CC[C@H]3[C@@H](CCC4=CC(=O)CC[C@@]43C)[C@@H]1CC[C@@H]2O [TESTOSTERONE]
[1]
  Activity: inducer [Decrease]
[2]
  Activity: inducer [+]
